Assay results from US7166588B2 (priority 2000, dated 2007).
Structures can show the parent of a compound that is named as a salt.

molecular target: acetylcholinesterase (AChE), human recombinant (Homo sapiens, UniProt P22303); experiment: biochemical; conditions: pre-incubation of the enzyme with inhibitor, read-out: IC50 (AChE, mE, hr)
Sequence (P22303 32-614): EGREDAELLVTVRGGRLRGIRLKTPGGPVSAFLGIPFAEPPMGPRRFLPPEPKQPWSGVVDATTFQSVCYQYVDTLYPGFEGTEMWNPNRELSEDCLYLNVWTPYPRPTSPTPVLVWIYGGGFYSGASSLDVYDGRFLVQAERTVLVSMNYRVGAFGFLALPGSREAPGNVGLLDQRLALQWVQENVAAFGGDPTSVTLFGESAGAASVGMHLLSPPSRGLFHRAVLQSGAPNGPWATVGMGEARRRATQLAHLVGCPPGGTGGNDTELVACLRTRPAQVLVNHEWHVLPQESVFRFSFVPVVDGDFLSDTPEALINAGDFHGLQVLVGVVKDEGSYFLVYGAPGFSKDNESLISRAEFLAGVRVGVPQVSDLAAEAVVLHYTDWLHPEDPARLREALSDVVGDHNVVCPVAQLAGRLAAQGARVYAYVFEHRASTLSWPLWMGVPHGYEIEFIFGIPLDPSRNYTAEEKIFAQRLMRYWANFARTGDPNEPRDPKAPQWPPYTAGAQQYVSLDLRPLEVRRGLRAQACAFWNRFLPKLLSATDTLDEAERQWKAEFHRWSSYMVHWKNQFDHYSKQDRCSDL

Compound | IC50 [µM]
C#CC[N+]1(C)CC[C@@]23C=C[C@@H](O)C[C@@H]2Oc2c(OC)cc(C)c(c23)C1 (mixture of isomers) [SPH-1251] | 59
COc1ccc2c3c1O[C@H]1CC(O)C=C[C@@]31CCN(C(=O)OC(C)(C)C)C2 (relative stereo) [SPH-1302, (4aa,6β,8aR*)-4a,5,9,10-Tetrahydro-6-hydroxy-3-methoxy-6H-benzofuro[3a,3,2-ef][2]benzazepine-11(12H)-carboxylic acid-1,1-dimethylethyl ester] | 23
COc1ccc2c3c1O[C@H]1CC(O)C=C[C@@]31CC[N+](C)(Cc1ccc(Br)cc1)C2 (single isomer, unassigned; (-)) [SPH-1184, (−)(4-Bromophenyl)methylgalanthaminium bromide hemihydrate] | 0.2
COc1ccc2c3c1O[C@H]1CC(O)C=C[C@@]31CC[N+](C)(CCCCl)C2 (single isomer, unassigned; (-)) [SPH-1191, (−)(3-Chloropropyl)-galanthaminium Bromide, 1.25 H2O] | 0.35
COc1ccc2c3c1O[C@@H]1CC(O)C=CC31CCN(C(=O)NC(C)C)C2 (stereo in doubt) [SPH-1214, (6R)-6-Hydroxy-N^11-isopropyl-3-methoxy-5,6,9,10-tetrahydro-4aH-[1]benzofuro[3a,3,2-ef][2]benzazepine-11(12H)carboxamide] | 4.2
COc1ccc2c3c1O[C@@H]1CC(O)C=CC31CCN(c1ccnc(OCCCN(C)C)n1)C2 (stereo in doubt) [SPH-1244, (6R)-11-(2-(3-(Dimethylamino)propoxy)-4-pyrimidinyl)-3-methoxy-5,6,9,10,11,12-hexahydro-4aH-[1]benzofuro[3a,3,2-ef][2]benzazepin-6-ol] | 7.6
COc1ccc2c3c1O[C@@H]1CC(O)C=CC31CCN(CCCN1CCCCC1)C2 (stereo in doubt) [SPH-1371, (4aα,6b, 8aR* )-4a,5,9,10,111,12-Hexahydro-3-methoxy-11-[3-(1-piperidinyl)propyl]-6H-benzofuro[3a,3,2-ef][2]benzazepin-6-ol, Dihydrobromide, Dihydrate] | 0.36
COc1ccc2c3c1O[C@@H]1C[C@H](O)C=CC31CCN(CCCN1CC3CC1CN3c1ccc(F)cc1)C2 (stereo partly shown) [SPH-1196] | 5.2
COc1cc(C)c2c3c1O[C@@H]1C[C@H](O)C=CC31CCN(CCCN1CCCCC1)C2 (stereo partly shown) [SPH-1201] | 46
C#CC[N+]1(C)CCC23C=C[C@@H](O)C[C@H]2Oc2c(OC)cc(C)c(c23)C1 (stereo partly shown) [SPH-1206] | 78
COc1cc(C)c2c3c1O[C@@H]1C[C@H](O)C=CC31CC[N+](C)(Cc1ccccc1)C2 (stereo partly shown) [SPH-1207] | 47
CNC(=S)N1CCC23C=C[C@H](O)CC2Oc2c(OC)cc(Br)c(c23)C1 (stereo partly drawn) [SPH-1209, (6R)-1-Bromo-6-hydroxy-3-methoxy-N^11-methyl-5,6,9,10-tetrahydro-4aH-[1]benzofuro[3a,3,2-ef][2]benzazepine-11(12H)-thiocarboxylic acid amide] | 31
CNC(=S)N1CCC23C=C[C@@H](O)C[C@H]2Oc2c(OC)ccc(c23)C1 (stereo partly shown) [SPH-1211] | 23
COc1ccc2c3c1O[C@@H]1C[C@H](O)C=CC31CCN(C(=O)Nc1ccccc1)C2 (stereo partly shown) [SPH-1215] | 70
COc1ccc2c3c1O[C@@H]1C[C@H](O)C=CC31CCN(C=C(C#N)C#N)C2 (stereo partly shown) [SPH-1219] | 28.5
COc1ccc2c3c1O[C@@H]1C[C@H](O)C=CC31CCN(CCCO)C2 (stereo partly shown) [SPH-1220] | 7.2
COc1ccc2c3c1O[C@@H]1C[C@H](O)C=CC31CCN(C(=O)NC(C)(C)C)C2 (stereo partly shown) [SPH-1221] | 4.8
COc1ccc2c3c1O[C@@H]1C[C@H](N)C=CC31CCN(C)C2 (stereo partly drawn) [SPH-1227, [4aS-(4aα,6α,8aR*)]-4a,5,9,10,11,12-Hexahydro-3-methoxy-11-methyl-6H-benzofuro[3a,3,2-ef][2]benzazepine-6-amine] | 40
COc1ccc2c3c1O[C@@H]1C[C@H](O)C=CC31CCN(c1ncccn1)C2 (stereo partly shown) [SPH-1229] | 38
COc1ccc2c3c1O[C@@H]1C[C@H](O)C=CC31CCN(C(=O)Nc1ccc3ccccc3c1)C2 (stereo partly shown) [SPH-1232] | 36

Compound | IC50 [µM]
COc1ccc2c3c1O[C@@H]1C[C@H](O)C=CC31CCN(CCCN)C2 (stereo partly shown) [SPH-1235] | 3.4
C=CCNC(=S)N1CCC23C=C[C@@H](O)C[C@H]2Oc2c(OC)ccc(c23)C1 (stereo partly shown) [SPH-1236] | 21
COc1ccc2c3c1O[C@@H]1C[C@H](O)C=CC31CCN(C(=O)Nc1ccc(Cl)cc1)C2 (stereo partly shown) [SPH-1237] | 24
CCN(CC)c1nc(N(CC)CC)nc(N2CCC34C=C[C@@H](O)C[C@H]3Oc3c(OC)ccc(c34)C2)n1 (stereo partly shown) [SPH-1243] | 40
CCN(CC)c1nccc(N2CCC34C=C[C@@H](O)C[C@H]3Oc3c(OC)ccc(c34)C2)n1 (stereo partly shown) [SPH-1245] | 25
COc1ccc2c3c1O[C@@H]1C[C@H](O)C=CC31CCN(CCC(=O)NC(C)(C)C)C2 (stereo partly shown) [SPH-1249] | 45
COc1cc(C)c2c3c1O[C@@H]1C[C@H](O)C=CC31CC[N+](C)(Cc1ccc(C(F)(F)F)cc1)C2 (stereo partly shown) [SPH-1253] | 60
COC(=O)/C=C(\C(=O)OC)N1CCC23C=C[C@@H](O)C[C@H]2Oc2c(OC)ccc(c23)C1 (stereo partly shown) [SPH-1259] | 140
COc1ccc2c3c1O[C@@H]1C[C@H](O)C=CC31CCN(CCC(=O)NC(C)C)C2 (stereo partly shown) [SPH-1262] | 54.5
COc1ccc2c3c1O[C@@H]1C[C@H](O)C=CC31CCN(C(=O)NC(C)c1ccccc1)C2 (stereo partly shown) [SPH-1267] | 30
COc1ccc2c3c1O[C@@H]1CC(O)C=CC31CCN(C(N)=O)C2 (stereo partly shown) [SPH-1268] | 44
COc1ccc2c3c1O[C@@H]1C[C@H](O)C=CC31CCN(C(=O)NC(C)C)C2 (stereo partly shown) [SPH-1269] | 2.6
COc1ccc2c3c1O[C@@H]1C[C@H](O)C=CC31CCN(C(=O)NC(C)(C)C)C2 (stereo partly shown) [SPH-1270] | 2.5
COc1ccc2c3c1O[C@@H]1CC(O)C=CC31CCN(/C(=N/C#N)SC)C2 (stereo partly shown) [SPH-1272] | 6.7
COc1ccc2c3c1O[C@@H]1CC(O)C=CC31CCN(c1ccccc1)C2 (stereo partly shown) [SPH-1280] | 0.5
COc1ccc2c3c1O[C@@H]1CC(O)C=CC31CCN(c1cccs1)C2 (stereo partly shown) [SPH-1282] | 4
COc1ccc2c3c1O[C@H]1CC(O)C=CC31CCN(C(=O)NC(C)(C)C)C2 (stereo partly shown) [SPH-1283] | 93
COc1ccc2c3c1O[C@H]1CC(O)C=CC31CCN(C(=O)NC(C)C)C2 (stereo partly shown) [SPH-1284] | 8
COc1ccc2c3c1O[C@@H]1CC(O)C=CC31CCN(CCCN1CCCCC1)C2 (stereo partly shown) [SPH-1286] | 0.3
CNC(=S)N1CCC23C=C[C@@H](O)C[C@H]2Oc2c(OC)ccc(c23)C1 (stereo partly shown) [SPH-1287] | 18.5

Compound | IC50 [µM]
COc1ccc2c3c1O[C@@H]1CC(O)C=CC31CCN(CC1CC1)C2 (stereo partly shown) [SPH-1289] | 0.7
COc1ccc2c3c1O[C@@H]1CC(O)C=CC31CCN(C)C2C#N (stereo partly shown) [SPH-1290] | 1.2
COc1ccc2c3c1O[C@@H]1CC(O)C=CC31CCN(C)C2C#N (stereo partly shown) [SPH-1291] | 0.8
COc1ccc2c3c1O[C@@H]1CC(O)C=CC31CCN(C(=O)OCC1c3ccccc3-c3ccccc31)C2 (stereo partly shown) [SPH-1292] | 40
COc1ccc2c3c1O[C@@H]1CC(O)C=CC31CCN(C)C2C (stereo partly shown) [SPH-1293] | 4.2
COc1ccc2c3c1O[C@@H]1CC(O)C=CC31CCN(CC#N)C2 (stereo partly shown) [SPH-1295] | 15
COc1ccc2c3c1O[C@@H]1CC(O)C=CC31CCN(C(=O)Oc1ccccc1)C2 (stereo partly shown) [SPH-1296] | 46
COc1ccc2c3c1O[C@@H]1CC(O)C=CC31CCN(CCCN1CC3CC1CN3c1ccc(F)cc1)C2 (stereo partly shown) [SPH-1312] | 3
COc1ccc2c3c1O[C@@H]1CC(O)C=CC31CCN(CC(=O)N1CC3CC1CN3c1ccccc1)C2 (stereo partly shown) [SPH-1314] | 8.4
COc1ccc2c3c1O[C@@H]1CC(O)C=CC31CCN(CCCO)C2 (stereo partly shown) [SPH-1315] | 2.8
COc1cc(C)c2c3c1O[C@@H]1CC(O)C=CC31CCN(C)C2C#N (stereo partly shown) [SPH-1317] | 80
COc1cc(C)c2c3c1OC1CC(O)C=CC31CCN(C)C2C (stereo not shown) [SPH-1320] | 83
COc1ccc2c3c1O[C@@H]1CC(O)C=CC31CCN(C(=S)Oc1ccccc1)C2 (stereo partly shown) [SPH-1328] | 7.2
COc1ccc2c3c1O[C@H]1CC(O)C=CC31CCN(CCCN1CCCCC1)C2 (stereo partly shown) [SPH-1333] | 9
COc1cc2c(cc1OC)C(=O)C(CCCCN1CCC34C=CC(O)C[C@H]3Oc3c(OC)ccc(c34)C1)C2 (stereo partly shown) [SPH-1335] | 0.02
COc1cc2c(cc1OC)C(=O)C(CCCCCN1CCC34C=CC(O)C[C@H]3Oc3c(OC)ccc(c34)C1)C2 (stereo partly drawn) [SPH-1359, 2-[5-[(4aS,6R,8aS)-6-Hydroxy-3-methoxy-5,6,9,10,11,12-hexahydro-4aH-benzofuro[3a,3,2-e,f][2]benzazepine-11-yl]pentyl]-5,6-dimethoxyindan-1-one] | 0.0052
COc1cc2c(cc1OC)C(=O)C(CCCCCN1CCC34C=CC(O)C[C@H]3Oc3c(OC)ccc(c34)C1)C2 (stereo partly shown) [SPH-1375] | 0.023
COc1cc2c(cc1OC)C(=O)C(CCCCN1CCC34C=CC(O)C[C@H]3Oc3c(OC)ccc(c34)C1)C2 (stereo partly shown) [SPH-1376] | 0.02
